Article PMC8409943, “Study on mechanism of low bioavailability of black tea theaflavins by using Caco-2 cell monolayer” (Drug Delivery, 2021)
Read-outs that look alike come from different tables or passages of the source.

What was measured:
[1] = Stability (recovery rate) of theaflavins in HBSS and DMEM in the absence of cells
Protocol: Standard stock solutions of each theaflavin were diluted with HBSS and DMEM respectively, obtaining final test solutions of 200 μM. The recovery rate of theaflavins in HBSS and in DMEM, in the absence of cells, was analyzed by HPLC after incubation at 37 °C for 0.5, 1, 2, 3, 4, 8, 12, and 24 hours, respectively. The recovery rate was used to measure the stability and calculated as follows: (2) Recovery rate=Ct/C0× 100% where Ct is the final concentration at different incubation time (μM); C0, the initial concentration (μM).
Theaflavins were characterized by high performance liquid chromatography (HPLC, Agilent 1100VL, Agilent Technologies Inc., CA, USA). Briefly, samples were extracted with 70% methanol, centrifuged at 685 × g for 10 min, and filtered through a 0.45 μm membrane (Nylon 66). The separation was performed by an ODS reversed-phase column (4.6 mm i.d.×250 mm, SB-C18, Agilent Technologies Inc., CA, USA) at a flow rate of 0.7 mL/min. Chromatographic conditions were slightly modified according to China National Standard (GB/T 30483-2013, GAQSIQ, P. R. China, 2013). Samples were eluted with a gradient of solvent A (100 mL water with 9 mL acetonitrile and 2 mL acetic acid) and B (100 mL acetonitrile with 17.8 mL water and 2 mL acetic acid) as follows: 0–5 min, 95% A; 5–10 min, 90% A; 10–20 min, 70% A; 20–25 min, 65% A; 25–30 min, 70% A; 30–35 min, 100% A. Theaflavins were detected using an ultraviolet detector at a wavelength of 278 nm.

Caco-2 monolayers = experiment: HPLC-MS/MS identification of metabolites in the absorptive transport of Caco-2 monolayers; type: in vitro ADME, Human; settings: 200 µM, 2 h, AP side or BL side of Caco-2 monolayers
Protocol: TF3G, TF3’G and TFDG were dissolved in DMSO (≤0.5%), and then, diluted with HBSS. Caco-2 cells were incubated with 200 µM TF3G, TF3’G and TFDG at 37 °C for 2 h. Samples collected from both AP side and BL side were measured by HPLC with MS detection, and the metabolites were determined in terms of the standard TF, TF3G, TF3’G, TFDG, and gallic acid (Table S2).

Caco-2 cells [2] = experiment: Intracellular accumulation of theaflavin monomers; settings: 200 μM theaflavins, 2 h incubation, 37 °C
Protocol: Caco-2 cells were seeded at a density of 8 × 10^4 cells per well in 6-well plates (Ni et al., [2020]). After differentiation over a period of 21 days, cells were incubated with 2.0 mL of 200 μM theaflavins at 37 °C. After 2 h incubation, phosphate buffer was added to wash cells in the plate. Then, cell lysates were prepared with RIPA lysis buffer containing 1 mM PMSF as a protease inhibitor and centrifugated at 12,000 rpm for 30 min. Total protein contents were quantified using a BCA estimation kit according to the manufacturer’s instructions (Beyotime). Theaflavins were quantified by HPLC analysis and the intracellular accumulation was expressed as µg theaflavin/mg protein.
Theaflavins were characterized by high performance liquid chromatography (HPLC, Agilent 1100VL, Agilent Technologies Inc., CA, USA). Briefly, samples were extracted with 70% methanol, centrifuged at 685 × g for 10 min, and filtered through a 0.45 μm membrane (Nylon 66). […] Samples were eluted with a gradient of solvent A (100 mL water with 9 mL acetonitrile and 2 mL acetic acid) and B (100 mL acetonitrile with 17.8 mL water and 2 mL acetic acid) as follows: 0–5 min, 95% A; 5–10 min, 90% A; 10–20 min, 70% A; 20–25 min, 65% A; 25–30 min, 70% A; 30–35 min, 100% A. Theaflavins were detected using an ultraviolet detector at a wavelength of 278 nm.

[3] = Transepithelial transport of theaflavins across Caco-2 cell monolayers, with or without efflux transporter inhibitors; type: in vitro ADME, Human; settings: human; for recovery at 2 h, 200 μM: Caco-2, Caco-2 monolayers, after 2 h incubation; for efflux ratio at 2 h, 200 μM / Papp A→B at 2 h, 200 μM / Papp B→A at 2 h, 200 μM: 2 h incubation
Protocol: (§1) For transport studies, Caco-2 cells were seeded at a density of 3 × 10^5 cells per well in Transwell® inserts (polycarbonate membrane, 24 mm i.d., 0.4 μm pore size, Corning Costar Corp., NY, USA) in 6-well plates (Zhang et al., [2004]). […] The inserts were washed twice with HBSS buffer and equilibrated at 37 °C for 30 min. Standard stock solutions of each theaflavin were diluted to 200 μM with HBSS. For absorptive transport, theaflavins in 1.5 mL HBSS was added into the AP side and 2.6 mL HBSS was added into the BL side of all inserts. For secretory transport, 1.5 mL HBSS and 2.6 mL theaflavins in HBSS were added into AP side and BL side, respectively. Samples were collected from the receiving chamber after 0.5, 1, 2, 3, or 4 h incubation and then were lyophilized at −110 °C in a CoolSafe freeze dryer (LaboGene ApS, Bjarkesvej, Denmark) for HPLC analysis. The recovery rate of theaflavins in the transport was calculated from the above Equation (2).
(§2) Prior to transport inhibition experiment, cells were preincubated for 30 min with 100 μM Vep, 100 μM CsA, 100 μM MK-571, or 10 μM FTC in both sides (Vaidyanathan & Walle, [2001]; Wang et al., [2008]). Then, the absorptive and secretory experiments were performed in the presence of inhibitors as described above. Samples were collected from the receiving chamber after 2 h incubation and then were lyophilized at −110 °C for HPLC analysis.
(§3) The apparent permeability coefficient (Papp, cm/s) was calculated as follows: (3) Papp= dQ/dt×V/(A×C0) where dQ/dt is the variation in concentration on the receiving side over time (μM/s); V, the volume of the solution collected from the receiving chamber (cm^3); A, the area of the membrane (4.67 cm^2); C0, the initial concentration of theaflavins in the donor chamber (μM).
(§4) The efflux ratio was calculated as follows: (4) Efflux ratio= Papp(BL−AP)/Papp(AP−BL) where Papp, apparent permeability coefficient; AP-BL, apical to basolateral transport; BL-AP, basolateral to apical transport.

Caco-2 cell monolayers = experiment: as above; type: in vitro ADME, Human; settings: absorptive transport, 2 h
Protocol: as §1, §2, §3, §4

MRP2 = experiment: Quantitative real-time PCR, mRNA level of MRP2; type: cell-based, Human; settings: Caco-2 cells, 200 μM, 2 h, vs control
Protocol: Cell culture and treatment were performed as described above in 2.6. Total RNA was extracted from Caco-2 cells by the cell RNA extraction kit, and then reverse-transcribed by the cDNA synthesis kit. Gene amplification and quantitative detection were performed as previously described (Ai et al., [2019]). Target mRNA levels were normalized to β-actin mRNA levels. Data were calculated by the 2^−ΔΔCT method.

Caco-2 cells [4] = experiment: Cytotoxicity study by CCK-8 method; type: cell-based, Human; settings: 24 h
Protocol: Standard stock solutions (1000 μM) of each theaflavin were prepared in 0.1% dimethyl sulfoxide (DMSO) in deionized water, and diluted with fresh DMEM to 100, 200, 300, 400, and 500 µmol/L respectively. Each inhibitor was prepared as instructions. The cytotoxicity of theaflavins and four inhibitors of multidrug resistant associated proteins to Caco-2 cells was examined by CCK-8 method (Song et al., [2014]). Briefly, Caco-2 cells were inoculated onto 96-well microtiter plates at a density of 1 × 10^4 cells per well. After incubation at 37 °C for 24 h, cells were incubated for another 24 h with different concentrations of theaflavins, followed by adding 10 μL CCK-8 solution and 1 h incubation at 37 °C. The absorbance (OD) value was determined at 450 nm using a microplate reader (ELX-800, Bio-Tek Instruments Inc., Winooski, USA). Four inhibitors were used in this study: Vep, inhibitor of P-gp; CsA, inhibitor and substrate of P-gp; MK-571, inhibitor of MRP1, MRP2 and MRP3; FTC, inhibitor of BCRP (Silbermann et al., [1989]; König et al., [1999]; Renes et al., [1999]; Ali et al., [2017]). The cytotoxicity of Vep, CsA, MK-571 or FTC was also determined by CCK-8 assay. […] To determine the effects of inhibitors on the cytotoxicity of theaflavins, cells were incubated with both different theaflavin monomers (100, 200, 300, 400, and 500 μM) and different inhibitors. IC50, the half inhibitory concentration, was calculated from the cell viability. The cell viability was calculated by the following equation: (1) Cell viability (%)=(ODsample− ODblank)/(ODcontrol− ODblank)×100% where ODsample is the absorbance value of cell + sample + complete medium; ODblank, the absorbance value of complete medium; ODcontrol, the absorbance value of cell + complete medium.

## O=c1c(O)cc([C@H]2Oc3cc(O)cc(O)c3C[C@H]2O)cc2c([C@H]3Oc4cc(O)cc(O)c4C[C@H]3O)cc(O)c(O)c12 [TF, theaflavin]
[1]; 2 h
  degraded due to the structural instability: 9.3%
[1]; pH 6.0 DMEM without cells, 200 μM, 37 °C, 2 h incubation
  Recovery rate in DMEM: < 45%
Caco-2 monolayers
  conjugated metabolites (glucuronidated, sulfated and methylated): not detected
Caco-2 cells [2]
  Contents of theaflavins absorbed in Caco-2 cells: -
[3]; apical to basolateral, read-out: recovery of theaflavins in absorptive transport
  recovery at 2 h, 200 μM: 39.8%
[3]; basolateral to apical, read-out: recovery of theaflavins in secretory transport
  recovery at 2 h, 200 μM: 48.9%
[3]; Caco-2, Papp(BL−AP)/Papp(AP−BL), Ctrl (no inhibitor)
  efflux ratio at 2 h, 200 μM: 1.24 ± 0.09
[3]; Caco-2, absorptive transport, 200 μM theaflavin in HBSS, Ctrl (no inhibitor)
  Papp A→B at 2 h, 200 μM: 2.77 ± 0.09 nm/s
[3]; Caco-2, secretory transport, 200 μM theaflavin in HBSS, Ctrl (no inhibitor)
  Papp B→A at 2 h, 200 μM: 3.42 ± 0.14 nm/s
[3]; Caco-2, with 10 μM FTC (BCRP inhibitor), + 10 μM FTC (BCRP inhibitor)
  efflux ratio at 2 h, 200 μM: 1.05 ± 0.08
[3]; Caco-2, with 10 μM FTC (BCRP inhibitor), absorptive transport, + 10 μM FTC (BCRP inhibitor)
  Papp A→B at 2 h, 200 μM: 3.1 ± 0.1 nm/s
[3]; Caco-2, with 10 μM FTC (BCRP inhibitor), secretory transport, + 10 μM FTC (BCRP inhibitor)
  Papp B→A at 2 h, 200 μM: 3.24 ± 0.13 nm/s
[3]; Caco-2, with 100 μM CsA (P-gp inhibitor and substrate), + 100 μM CsA (P-gp inhibitor and substrate)
  efflux ratio at 2 h, 200 μM: 0.62 ± 0.05
[3]; Caco-2, with 100 μM CsA (P-gp inhibitor and substrate), absorptive transport, + 100 μM CsA (P-gp inhibitor and substrate)
  Papp A→B at 2 h, 200 μM: 5.65 ± 0.19 nm/s
[3]; Caco-2, with 100 μM CsA (P-gp inhibitor and substrate), secretory transport, + 100 μM CsA (P-gp inhibitor and substrate)
  Papp B→A at 2 h, 200 μM: 3.48 ± 0.14 nm/s
[3]; Caco-2, with 100 μM Vep (P-gp inhibitor), + 100 μM Vep (P-gp inhibitor)
  efflux ratio at 2 h, 200 μM: 0.73 ± 0.05
[3]; Caco-2, with 100 μM Vep (P-gp inhibitor), absorptive transport, + 100 μM Vep (P-gp inhibitor)
  Papp A→B at 2 h, 200 μM: 4.15 ± 0.14 nm/s
[3]; Caco-2, with 100 μM Vep (P-gp inhibitor), secretory transport, + 100 μM Vep (P-gp inhibitor)
  Papp B→A at 2 h, 200 μM: 3.01 ± 0.12 nm/s
Caco-2 cell monolayers; with CsA vs control
  increase of the influx: 2.0 times
Caco-2 cell monolayers; with MK-571 vs control
  fold increase in the influx: 1.47 fold
Caco-2 cell monolayers; with verapamil vs control
  fold increase in the influx: 1.50 fold
MRP2
  decrease of mRNA (transcriptional) level of MRP2: 38.73%
Caco-2 cells [4]; + CsA
  IC50: 584 ± 26.9 µM
Caco-2 cells [4]; + FTC
  IC50: 492 ± 34.2 µM
Caco-2 cells [4]; + MK-571
  IC50: 463 ± 80.8 µM
Caco-2 cells [4]; + VEP
  IC50: 517 ± 66.2 µM
Caco-2 cells [4]; Homo sapiens, Ctrl (no inhibitor)
  IC50: 681 ± 19.2 µM
